A word on the IC50: it is the concentration that gives 50% inhibition. High values mean lower potency, low ones higher potency.

This note sets out measurements from US7288528B2, “Aromatic fluoroglycoside derivatives, medicaments containing these compounds, and the use thereof” (Sanofi-Aventis Deutschland GmbH, priority 2002, dated 2007).

The experiment deals with T1, SGLT (Oryctolagus cuniculus, UniProt P11170).
T1 construct: To prepare brush border membranes from rabbit small intestine, rabbits were sacrificed; from tissue; host or cells: rabbit small intestine mucosa, brush border membrane vesicles (Mg2+ precipitation method)
T1 sequence (P11170 1-662): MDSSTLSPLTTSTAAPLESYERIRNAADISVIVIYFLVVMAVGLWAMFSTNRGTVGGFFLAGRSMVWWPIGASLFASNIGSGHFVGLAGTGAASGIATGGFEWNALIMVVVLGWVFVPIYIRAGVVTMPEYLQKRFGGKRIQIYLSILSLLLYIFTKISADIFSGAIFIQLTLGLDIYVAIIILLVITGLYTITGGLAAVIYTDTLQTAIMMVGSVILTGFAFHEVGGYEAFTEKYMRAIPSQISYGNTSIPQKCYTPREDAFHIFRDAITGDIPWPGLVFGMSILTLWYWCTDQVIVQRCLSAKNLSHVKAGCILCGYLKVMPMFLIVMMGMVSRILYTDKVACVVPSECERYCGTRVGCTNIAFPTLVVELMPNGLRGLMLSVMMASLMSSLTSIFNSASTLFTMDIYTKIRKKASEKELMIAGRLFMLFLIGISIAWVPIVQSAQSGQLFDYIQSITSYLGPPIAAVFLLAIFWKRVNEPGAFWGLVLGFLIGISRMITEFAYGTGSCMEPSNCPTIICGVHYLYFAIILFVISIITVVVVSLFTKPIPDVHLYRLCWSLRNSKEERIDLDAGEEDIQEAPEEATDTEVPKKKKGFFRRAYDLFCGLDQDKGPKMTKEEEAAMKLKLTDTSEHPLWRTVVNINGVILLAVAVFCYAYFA
Briefly: Glucose uptake by brush border membrane vesicles (transport assay, membrane filtration method). In kind it is biochemical. The following applies: uptake of 10 μM [14C]D-glucose into rabbit small intestine brush border membrane vesicles, 30° C., 15 seconds.
As to `OCC1OC(Oc2ccccc2Cc2ccccc2)C(O)C(O)C1F` (centres unmarked) [Example 2], the IC50 worked out at 700 nM.

As to `COc1ccc(CCC(=O)c2c(O)cc(C)cc2OC2OC(CO)C(F)C(O)C2O)cc1` (centres unmarked) [Example 7], 900 nM corresponded to half-maximal inhibition (IC50).

For `Cc1cc(O)c(C(=O)CCc2ccc3occc3c2)c(OC2OC(CO)C(F)C(O)C2O)c1` (single isomer, unassigned) [Example 4], the IC50 was 1500 nM.

In the case of `Cc1cc(O)c(C(=O)CCc2ccc3occc3c2)c(OC2OC(CO)C(F)C(O)C2O)c1` (single isomer, unassigned) [Example 5], 400 nM corresponded to half-maximal inhibition (IC50).

`COc1ccc(Cc2ccccc2OC2OC(CO)C(F)C(O)C2O)cc1` (centres unmarked) [Example 1] yielded an IC50 of 500 nM.
